Values of other authors, collected in patent US20090054331A1, “HIGH TEMPERATURE STABLE PEPTIDE FORMULATION” (priority 2007, published 2009).

Legend:
[1] = in vivo
[2] = test system: human dental pulp cells; conditions: in vitro
[3] = test system: human dental defects; conditions: clinical trial
[4] = test system: human osteoblasts

## TDLQERGDNDISPFSGDGQPFKD [AC-100]
[1]
  bone formation activities: has shown bone formation activities in vivo
[2]
  proliferation of human dental pulp cells: stimulation of the proliferation
[3]
  formation of new dentin: formation of new dentin
[4]
  effect on proliferation, differentiation and mineralization of human osteoblasts: stimulate proliferation, differentiation, and mineralization
